Experimental data from publication PMC2682635 (Psychopharmacology, 2009).
Where two headings read alike, the source gives them in different places.

What was measured:
[1] = test system: baboons; details: 4 h after administration; reanalyzed data; ref Goodwin et al. 2005; cited from earlier work
[2] = cited from earlier work; for Mean maximum concentration of GHB in plasma: human, 50 mg/kg GHB
[3] = Pharmacokinetics: GHB in plasma after intragastric GHB, GBL or 1,4-BD; details: for Mean maximum concentration of GHB in plasma: baboon, ±SD
[4] = test system: humans; details: ref Carter et al. 2006; cited from earlier work
[5] = test system: baboons; details: ref Goodwin et al. 2005, cited from earlier work

## O=C(O)CCCO [GHB, Gamma-hydroxybutyrate]
[1]
  Food-maintained behavior compared to vehicle: not significantly altered
[2]; human subjects, total doses of 3−4.5 g GHB (i.e., 42.8 mg/kg), ref Scharf et al. 1998
  Maximum concentration of GHB, range: 30 to 103 µg/mL
[2]; ref Abanades et al. 2007
  Mean maximum concentration of GHB in plasma: 83.1 (+10.7 SD) μg/ml
[2]; ref Palatini et al. 1993
  Mean maximum concentration of GHB in plasma: 20 µg/mL
[3]; 32 mg/kg GHB
  Mean maximum concentration of GHB in plasma: 18.46 (±8.66 SD) μg/ml
[3]; 100 mg/kg GHB
  Mean maximum concentration of GHB in plasma: 72.2 (±15.73 SD) μg/ml
[3]; monkey, plasma, po, 320 mg/kg
  AUC: 4580 µM·h
  Cmax: 598 to 1940 µM
  half-life: 12.2 h
[3]; plasma, po, 320 mg/kg
  Tmax: 6 h
[4]
  Time of maximal drug effects postadministration: 1−2 h
[5]; 180−420 mg/kg, 120 min postadministration
  Duration to complete the fine-motor task: increased
[5]; any dose tested, 60 min postadministration
  Duration to complete the fine-motor task: did not alter
